The test has as its target T1, Polyunsaturated fatty acid lipoxygenase ALOX15 (Homo sapiens, UniProt P16050).
T1 sequence (P16050 whole entry): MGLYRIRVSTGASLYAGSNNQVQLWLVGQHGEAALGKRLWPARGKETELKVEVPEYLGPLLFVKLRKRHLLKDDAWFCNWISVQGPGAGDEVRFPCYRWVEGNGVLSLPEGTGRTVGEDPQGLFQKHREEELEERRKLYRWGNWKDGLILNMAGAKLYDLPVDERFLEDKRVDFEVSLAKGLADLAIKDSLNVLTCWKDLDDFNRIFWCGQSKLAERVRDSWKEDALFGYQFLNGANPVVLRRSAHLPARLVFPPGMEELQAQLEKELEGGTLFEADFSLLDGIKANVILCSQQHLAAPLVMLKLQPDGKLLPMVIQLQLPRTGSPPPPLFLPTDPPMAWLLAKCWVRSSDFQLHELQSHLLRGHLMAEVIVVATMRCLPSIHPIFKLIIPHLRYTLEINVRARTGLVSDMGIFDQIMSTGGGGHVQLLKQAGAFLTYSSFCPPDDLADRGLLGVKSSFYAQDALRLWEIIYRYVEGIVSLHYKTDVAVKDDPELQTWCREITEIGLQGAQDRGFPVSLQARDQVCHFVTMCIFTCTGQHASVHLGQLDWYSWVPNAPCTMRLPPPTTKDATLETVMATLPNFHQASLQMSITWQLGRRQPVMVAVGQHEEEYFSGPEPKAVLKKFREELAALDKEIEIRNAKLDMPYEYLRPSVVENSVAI
Kind of test: Competitive inhibition of N-terminal His6-tagged human 12/15-LOX using arachidonic acid as substrate by Dixon plot analysis.

In the case of `Cc1ccc(O)c(-c2cc(-c3ccccc3C)[nH]n2)c1` [4-methyl-2-[5-(2-methylphenyl)-1H-pyrazol-3-yl]phenol], the affinity, expressed as Ki, was 1000 nM.

Source of the values: BindingDB's records for doi:10.1016/j.bmc.2016.01.042 (University of California, 2016).
